In PubChem BioAssay (NCI):
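1) Cells in 96-well plates. 2) Compound, 48 h, 5 concentrations. 3) Linear interpolation between surrounding doses. 4) Unreached endpoint = highest concentration. GI50: concentration for 50% inhibition of growth. At the TGI there is no net growth.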

Assays:
Test in all cases: inhibition of tumour cell growth, NCI panel, 48 h
M14 melanoma = tested on: M14 melanoma
PC-3 prostate = tested on: PC-3 prostate
SK-MEL-28 melanoma = tested on: SK-MEL-28 melanoma
NCI-H226 lung = tested on: NCI-H226 lung
HCC-2998 colon = tested on: HCC-2998 colon
NCI-H522 lung = tested on: NCI-H522 lung
TK-10 renal = tested on: TK-10 renal
RPMI-8226 leukemia = tested on: RPMI-8226 leukemia
SK-MEL-2 melanoma = tested on: SK-MEL-2 melanoma
SF-539 CNS = tested on: SF-539 CNS

SMILES | GI50 (M14 melanoma) [µM] | TGI (M14 melanoma) [µM] | GI50 (PC-3 prostate) [µM] | TGI (PC-3 prostate) [µM] | GI50 (SK-MEL-28 melanoma) [µM] | TGI (SK-MEL-28 melanoma) [µM] | GI50 (NCI-H226 lung) [µM] | TGI (NCI-H226 lung) [µM] | GI50 (HCC-2998 colon) [µM] | TGI (HCC-2998 colon) [µM] | GI50 (NCI-H522 lung) [µM] | TGI (NCI-H522 lung) [µM] | GI50 (TK-10 renal) [µM] | TGI (TK-10 renal) [µM] | GI50 (RPMI-8226 leukemia) [µM] | TGI (RPMI-8226 leukemia) [µM] | GI50 (SK-MEL-2 melanoma) [µM] | TGI (SK-MEL-2 melanoma) [µM] | GI50 (SF-539 CNS) [µM] | TGI (SF-539 CNS) [µM]
O=c1oc2ccc(-c3ccc(F)cc3F)cc2c(=O)n1-c1ccc(Cl)c(C(F)(F)F)c1 | 2.45 | 6.79 | 2.95 | 35.8 | 2.05 | 5.77 | 2.03 | 6.11 | 2.41 | 6.03 | 2.09 | 8.97 | 4.41 | 19.1 | 2.1 | 5.9 | 1.99 | 4.76 | 2.54 | 7.09
COc1ccc(C2C=C(c3ccc(Cl)cc3)N=C3SC=C(C)N32)c(Br)c1 (centres undefined) | 3.99 | 15.7 | 4.67 | 43.3 | 5.11 | 17.4 | 11.4 | > 100 | 4.43 | 14.6 | 2.96 | 9.29 | 4.05 | 14.4 | 2.18 | 9.67 | 4.79 | 18.1 | 2.15 | 5.37
COc1ccc(Cn2cc3c(c2-c2ccccc2)CCc2cnoc2-3)cc1N | 0.227 | > 100 | 0.551 | > 100 | 0.247 | > 100 | 2.24 | > 100 | 0.496 | > 100 | 0.027 | 0.339 | 0.626 | > 100 | 0.31 | – | 0.273 | > 100 | 0.158 | 0.579
CN(C)c1ccc(C(c2ccc(Cl)cc2)c2ccc(N(C)C)cc2)cc1 | – | > 100 | – | > 100 | – | > 100 | – | – | – | > 100 | – | > 100 | – | > 100 | – | > 100 | – | > 100 | – | > 100
Cc1cc(Cl)ccc1Nc1nc(C(F)(F)F)ccc1C(=O)N/N=C/c1ccccc1Cl | 0.874 | 7.83 | 0.866 | > 26 | 1.38 | 6.88 | 1.3 | 5.07 | 1.34 | > 100 | 1.48 | 6.77 | 1 | 16.1 | – | – | 3.22 | 18.8 | 1.22 | 3.6
COc1cc2c(=O)n(CCN(C)C)c3c4cc5c(cc4ccc3c2cc1OC)OCO5 | 0.166 | 0.723 | 0.338 | 6.16 | 0.747 | 3.3 | 0.512 | 1.27 | 0.53 | 1.36 | 0.114 | 1.21 | – | – | 0.159 | 0.8 | 0.876 | 1.94 | 0.181 | 0.863
CN(C)c1ccc(/C=c2/c3ccccc3n3c2c2cc(F)ccc2[n+]3C)cc1 | 4.02 | 22.9 | 5.72 | 19.9 | 3.55 | 14.1 | – | – | – | 11.4 | 4.57 | > 41.1 | 3.83 | 14.7 | 0.715 | 3.55 | 3.54 | 11.1 | 2.59 | 7.49
COc1ccc(N(/C=C/C(=O)C(F)(F)F)CC(=O)c2ccc(Cl)cc2)cc1 | – | – | 14.2 | 32.8 | 18.1 | 36.2 | 16.5 | 31.6 | 17 | 36.2 | 12.7 | 30 | 17.7 | 40.8 | 13.4 | 44.7 | 15.4 | 31.8 | 18.2 | 37
COc1cc(-n2ccnc2)cc(OC)c1OC | – | – | 50 | > 100 | > 100 | > 100 | 36.2 | > 100 | 99.5 | > 100 | 60.6 | > 100 | 42.5 | > 100 | 75.6 | > 100 | 64.1 | > 100 | > 100 | > 100
C=C(C)C(=O)O[C@@H]1C/C(C)=C\[C@H](OC(C)=O)C[C@](C)(O)/C=C2/OC(=O)C(COC(C)=O)=C21 | – | – | – | 3.63 | – | 0.762 | – | 6.17 | – | 1.64 | – | 0.539 | – | 3.7 | – | 1.73 | – | 14.1 | – | > 28.5
COc1cc(C2C3=C(COC3=O)N(CCO)c3cc4c(cc32)OCO4)cc(OC)c1O (centres undefined) | 1.49 | 7.64 | 1.54 | > 50 | > 50 | > 50 | 3.72 | > 50 | 1.53 | 4.65 | 0.0267 | 0.289 | 4.54 | > 50 | 1.57 | > 50 | – | – | 1.47 | > 13.6
